Reference: patent US6867179B1, “Methods of inducing hair growth and coloration” (Trustees of Boston University, priority 1994, dated 2005)

Columns and labels:
[1] = system: p75; test: Regulation of p75 mRNA in melanocytes by agents that increase cAMP; assay type: cell-based, human; settings: forskolin 50 μM or IBMX 100 μM, within 24 hours
Procedure: MC were stimulated with growth factor-containing medium supplemented with forskolin (50 μM) or IBMX (100 μM) that increase cAMP levels. […] To determine if ultraviolet (UV) irradiation that induces cutaneous injury upregulates p75, MC were sham- or UV-irradiated with solar simulated light (30 mJ/cm^2, metered at 285+5 nm). […] Furthermore, 48 hours after irradiation, cAMP levels were >70% decreased in UV- vs sham-irradiated cells.

[2] = biological target: T1, p75^NTR (Homo sapiens, UniProt P08138); settings: lysine 34 replaced by alanine; cited from earlier work
T1 sequence (P08138 29-427): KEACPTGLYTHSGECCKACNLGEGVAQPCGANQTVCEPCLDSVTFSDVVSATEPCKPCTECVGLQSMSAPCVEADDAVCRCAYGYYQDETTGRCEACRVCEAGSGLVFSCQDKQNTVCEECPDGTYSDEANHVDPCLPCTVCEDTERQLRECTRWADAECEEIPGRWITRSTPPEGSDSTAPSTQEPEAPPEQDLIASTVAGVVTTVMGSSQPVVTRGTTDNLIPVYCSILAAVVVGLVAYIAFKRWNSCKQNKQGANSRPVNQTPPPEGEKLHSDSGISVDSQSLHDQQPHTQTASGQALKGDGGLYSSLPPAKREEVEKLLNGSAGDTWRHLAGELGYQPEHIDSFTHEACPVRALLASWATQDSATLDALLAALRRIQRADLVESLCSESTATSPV

Compound | p75 mRNA upregulation [1] | Lowering of affinity for p75NTR relative to NGF [2]
CC(C)Cn1c(=O)n(C)c(=O)c2[nH]cnc21 [IBMX] | substantially inhibited this upregulation | 
mutant NGF: NGF in which lysine (K) at position 34 is replaced by alanine (A) |  | 50%
